According to US20250059196A1 (SHANGHAI HANSOH BIOMEDICAL CO., LTD., priority 2021, published 2025):
Where two headings read alike, the source gives them in different places.

Assays:
[1] = target: Recombinant human MALT1/MLT protein (Homo sapiens (Human), UniProt Q9UDY8); test: Inhibitory effect on MALT1 enzyme activity (Ac-LRSR-AMC substrate, fluorescence 460 nm); format: biochemical; conditions: 10 nM FL MALT1, Ac-LRSR-AMC substrate, 50 min pre-incubation, 4 h reaction
Procedure: Ac-LRSR-AMC was used as the substrate to test the IC50 of the inhibitory activity of compounds on MALT1 enzyme activity at their Km concentration.
Ac-LRSR-AMC was used as the substrate which was digested by MALT1 to produce products, which produced fluorescence that could be detected at 460 nm. The highest concentration of the compound detected was 1000 nM, 3-fold dilution, a total of 11 concentrations (1000 nM-0.017 nM). The reaction system is 10 nM FL MALT1 protein, […] Ac-LRSR-AMC, 50 mM Tris pH 7.5, 0.6M Citrate, 1 mM DTT, 1 mM EDTA, 0.05% BSA and 1.5% DMSO. The compound and the enzyme were pre-incubated at room temperature for 50 min. The substrate was then added and the reaction was carried out for 4 h.
The original data (460 nm reading) was calculated according to the following formula to obtain the inhibition rate.
(§1) Log(inhibitor) vs. response—Variable slope (four parameters) in GraphPad Prism 6 was used to perform fitting equation analysis on compound concentration and corresponding inhibition rate, the curve was fit and compound IC50 value was obtained.
(§2) The fitting calculation equation is Y=Bottom+(Top−Bottom)/(1+10^((Log IC50−X)*HillSlope))

[2] = target: MALT1 protease activity in TMD8 cells (substrate BCL-10) (Homo sapiens (Human), UniProt Q9UDY8); test: Intracellular MALT1 protease activity detection (BCL-10 ELISA in TMD8 cells); format: cell-based; conditions: undigested BCL-10 by ELISA, 30 min compound then 2 h stimulation cocktail, read-out: Bcl10 TMD8 IC50
Procedure: By detecting the digestion level of the substrate BCL-10 by MALT1 in TMD8 cells, the inhibitory effect of the compound on MALT1 protease activity in the cellular environment was tested.
The ELISA sandwich method was used to detect the content of undigested BCL-10 protein in cells and determine the inhibitory effect of compounds on intracellular MALT1 protease activity. The highest concentration of the compound detected was 10000 nM, 3-fold dilution, a total of 9 concentrations (10000 nM-1.5 nM). Cells were plated at an appropriate density. Compounds of corresponding concentrations were first added for action for 30 min, and then eBioscience cell stimulation cocktail was added to stimulate the cells for 2 h. Cell lysate was then collected. The cell lysate was added to the assay plate previously coated with recombinant BCL-10 antibody (Abcam, #Ab33905) and incubated at 4° C. overnight. The next day, BCL-10 detection antibody (Santacruz, #Sc-5273HRP) was added and incubated for 2 h, TMB substrate was used for color development for about 30 min, then the color development was terminated, and a microplate reader was used for detection.
2) Curve fitting: Log(inhibitor) vs. response—Variable slope (four parameters) in GraphPad Prism 6 was used to perform fitting equation analysis on compound concentration and corresponding inhibition rate, the curve was fit and compound IC50 value was obtained.
as §2

OCI-Ly3 cells = test: Inhibition of proliferation of OCI-Ly3 cells (CellTiter-Glo); format: cell-based, human; conditions: 96 h incubation, read-out: Inhibition test of proliferation of OCI-Ly3 cells IC50
Procedure: The compound's inhibitory effect on the proliferation of TMD8 and OCI-Ly3 cells was evaluated through cell proliferation inhibition experiments.
The compound's inhibitory effect on the proliferation of TMD8 and OCI-Ly3 cells was detected by the CellTiter-Glo method. The highest concentration of the compound detected was 1000 nM, 3-fold dilution, a total of 9 concentrations (1000 nM-0.15 nM). After the cells were plated at an appropriate density, compounds were added the next day and incubated for 96 h before detection using the CellTiter-Glo Luminescent detection kit.
as §1, §2

[3] = Pharmacokinetics of oral administration in Balb/C mice; format: in vivo; conditions: male, mouse, po, 30 mg/kg, P.O., plasma; for AUC(0-t): read-out: AUC 0-t; for Cmax: read-out: Cmax; for MRT: read-out: MRT; for Tmax: read-out: Tmax
Procedure: Balb/C mice were used as test animals to study the pharmacokinetic behavior of the compound in the plasma of mice after oral administration at a dose of 30 mg/kg.
3 Balb/C mice (3/example), male, from Shanghai Jiesijie Experimental Animal Co., Ltd., animal production license number (SCXK (Shanghai) 2013-0006 N0.311620400001794).
3 Balb/C mice, male; p.o. respectively at a dose of 30 mg/kg and an administration volume of 10 mL/kg after the mice were fasted overnight.
Before and after administration of mice, 0.1 mL of blood was collected from the orbit at 0, 0.5, 1, 2, 4, 6, 8 and 24 h, and placed in EDTA-K2 test tubes, which was centrifuged at 6000 rpm at 4° C. for 6 min to separate plasma which was stored at −80° C.
• 1) 160 μL of acetonitrile was added to 40 μL of plasma sample for precipitation, and same was mixed and centrifuged at 3500×g for 5 to 20 min. • 2) 100 μL of the treated supernatant solution was taken and subjected to LC/MS/MS to analyze the concentrations of the test compounds.
• Liquid phase conditions: Shimadzu LC-20AD pump • Mass spectrometry conditions: AB Sciex API 4000 mass spectrometer • Chromatographic column: Phenomenex Gemiu 5 um C18 50×4.6 mm • Mobile phase: liquid A is 0.1% aqueous formic acid solution, liquid B is acetonitrile • flow rate: 0.8 mL/min • Elution time: 0-4.0 min, the eluent is as follows:
The main pharmacokinetic parameters were calculated using WinNonlin 8.2.

Sequence of Recombinant human MALT1/MLT protein (Q9UDY8 whole entry): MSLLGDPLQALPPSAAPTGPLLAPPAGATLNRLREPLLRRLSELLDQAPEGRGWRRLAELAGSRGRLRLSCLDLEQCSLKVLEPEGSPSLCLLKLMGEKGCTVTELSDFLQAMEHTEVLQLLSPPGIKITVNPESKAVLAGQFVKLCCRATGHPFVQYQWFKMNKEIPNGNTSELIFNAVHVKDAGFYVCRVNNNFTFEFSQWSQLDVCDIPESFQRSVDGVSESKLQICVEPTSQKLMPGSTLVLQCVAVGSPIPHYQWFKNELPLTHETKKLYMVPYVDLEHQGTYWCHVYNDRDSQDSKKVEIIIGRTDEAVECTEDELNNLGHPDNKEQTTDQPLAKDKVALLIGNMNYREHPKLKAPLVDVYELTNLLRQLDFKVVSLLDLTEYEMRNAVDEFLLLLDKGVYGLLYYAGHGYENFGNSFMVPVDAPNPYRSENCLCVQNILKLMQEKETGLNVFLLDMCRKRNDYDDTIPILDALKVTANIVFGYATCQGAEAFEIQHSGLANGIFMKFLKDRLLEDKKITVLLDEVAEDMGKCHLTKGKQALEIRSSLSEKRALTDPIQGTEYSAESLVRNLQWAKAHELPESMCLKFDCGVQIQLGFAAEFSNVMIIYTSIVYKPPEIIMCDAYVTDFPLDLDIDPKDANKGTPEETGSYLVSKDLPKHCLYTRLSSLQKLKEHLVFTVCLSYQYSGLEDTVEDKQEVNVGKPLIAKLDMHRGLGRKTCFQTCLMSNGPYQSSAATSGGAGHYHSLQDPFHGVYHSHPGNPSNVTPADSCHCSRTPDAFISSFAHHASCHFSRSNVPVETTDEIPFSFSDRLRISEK
Sequence of MALT1 protease activity in TMD8 cells (substrate BCL-10) (Q9UDY8 whole entry): as above

Row | Structure (SMILES) | IC50 [1] [nM] | IC50 (OCI-Ly3 cells; Homo sapiens) [nM] | other results
1 | O=C(Nc1ccnc(C(F)(F)F)c1)c1cnn(-c2ccc3c4c(cccc24)OC3)c1C(F)(F)F [Example 15, 1-(2H-naphthalene [1,8-bc]furan-5-yl)-5-trifluoromethyl-N-(2-trifluoromethyl-pyridin-4-yl)-1H-pyrazole-4-carboxamide] | 169 |  | 
2 | O=C(Nc1cnc(-n2cccn2)c(C(F)(F)F)c1)c1cnn(-c2ccc3c4c(cccc24)C(=O)N3)c1C(F)(F)F [Example 31, N-(6-(1H-pyrazol-1-yl)-5-(trifluoromethyl)pyridin-3-yl)-1-(2-carbonyl-1,2-dihydrobenzo[cd]indol-6-yl)-5-(trifluoromethyl)-1H-pyrazole-4-carboxamide] |  | 206 | IC50 [2]: 103 nM; AUC(0-inf) [3]: 197000 ng·h/mL; half-life [3]: 1.9 h; AUC(0-t) [3]: 197000 ng·h/mL; Cmax [3]: 25900 ng/mL; MRT [3]: 4.7 h; Tmax [3]: 2 h
3 | N#Cc1ccnn1-c1ncc(NC(=O)c2cnn(-c3ccc4c5c(cccc35)C(=O)N4)c2C(F)(F)F)cc1C(F)(F)F [Example 32] |  | 266 | 
4 | O=C(Nc1cnc(-c2ncco2)c(C(F)(F)F)c1)c1cnn(-c2ccc3c4c(cccc24)C(=O)N3)c1C(F)(F)F [Example 34, N-(6-(oxazol-2-yl)-5-(trifluoromethyl)pyridin-3-yl)-1-(2-carbonyl-1,2-dihydrobenzo[cd]indol-6-yl)-5-(trifluoromethyl)-1H-pyrazole-4-carboxamide] |  | 212 | 
5 | Cc1nc(-c2ncc(NC(=O)c3cnn(-c4ccc5c6c(cccc46)C(=O)N5)c3C(F)(F)F)cc2C(F)(F)F)oc1C [Example 35, N-(6-(4,5-dimethyloxazol-2-yl)-5-(trifluoromethyl)pyridin-3-yl)-1-(2-carbonyl-1,2-dihydrobenzo[cd]indol-6-yl)-5-(trifluoromethyl)-1H-pyrazole-4-carboxamide] |  | 263 | 
6 | Cn1ccc(-c2ncc(NC(=O)c3cnn(-c4ccc5c6c(cccc46)C(=O)N5)c3C(F)(F)F)cc2C(F)(F)F)n1 [Example 37, N-(6-(1-methyl-1H-pyrazol-3-yl)-5-(trifluoromethyl)pyridin-3-yl)-1-(2-oxo-1,2-dihydrobenzo[cd]indol-6-yl)-5-(trifluoromethyl)-1H-pyrazole-4-carboxamide] | 48 |  | 
7 | O=C(Nc1cnc(-n2cccn2)c(Cl)c1)c1cnn(-c2ccc3c4c(cccc24)C(=O)N3)c1C(F)(F)F [Example 44] | 80 |  | IC50 (OCI-Ly3 cells): 149 nM
8 | Cn1cnc(-c2ncc(NC(=O)c3cnn(-c4ccc5c6c(cccc46)C(=O)N5)c3C(F)(F)F)cc2Cl)n1 [Example 45] | 123 |  | 
9 | Cc1ncnn1-c1ncc(NC(=O)c2cnn(-c3ccc4c5c(cccc35)C(=O)N4)c2C(F)(F)F)cc1Cl [Example 47] | 123 |  | 
10 | O=C(Nc1cnc(-n2nccn2)c(C(F)(F)F)c1)c1cnn(-c2cnc3c4c(cccc24)C(=O)N3)c1C1CC1 [Example 78, N-(6-(2H-1,2,3-triazol-2-yl)-5-(trifluoromethyl)pyridin-3-yl)-5-cyclopropyl-1-(2-oxo-1,2-dihydropyrrolo[4,3,2-ij]isoquinolin-6-yl)-1H-pyrazole-4-carboxamide] |  |  | IC50 [2]: 67 nM

More lines, main results first:

Row | IC50 [1] [nM] | IC50 (OCI-Ly3 cells; Homo sapiens) [nM] | Structure (SMILES) | other results
11 | 39 | 219 | O=C(Nc1ccc(-n2nccn2)c(C(F)(F)F)c1)c1cnn(-c2ccc3c4c(cccc24)C(=O)N3)c1C(F)(F)F [Example 50, N-(4-(2H-1,2,3-triazol-2-yl)-3-(trifluoromethyl)phenyl)-1-(2-oxo-1,2-dihydrobenzo[cd]indol-6-yl)-5-(trifluoromethyl)-1H-pyrazole-4-carboxamide] | AUC(0-t) [3]: 54400 ng·h/mL; Cmax [3]: 3020 ng/mL; Tmax [3]: 8 h
12 |  | 83 | O=C(Nc1ccc(-n2cccn2)c(C(F)(F)F)c1)c1cnn(-c2ccc3c4c(cccc24)C(=O)N3)c1C(F)(F)F [Example 51, N-(4-(1H-pyrazol-1-yl)-3-(trifluoromethyl)phenyl)-1-(2-carbonyl-1,2-dihydrobenzo[cd]indol-6-yl)-5-(trifluoromethyl)-1H-pyrazole-4-carboxamide] | 
13 | 193 | 87 | O=C(Nc1cnc(-n2nccn2)c(C(F)(F)F)c1)c1cnn(-c2ccc3c4c(cccc24)C(=O)N3)c1C(F)F [Example 66, N-(6-(2H-1,2,3-triazol-2-yl)-5-trifluoromethylpyridin-3-yl)-5-difluoromethyl-1-(2-oxo-1,2-dihydrobenzo[cd]indol-6-yl)-1H-pyrazole-4-carboxamide] | 
14 | 48 |  | O=C(Nc1cnc(-n2nccn2)c(Cl)c1)c1cnn(-c2ccc3c4c(cccc24)C(=O)N3)c1C(F)F [Example 67, N-(6-(2H-1,2,3-triazol-2-yl)-5-chloropyridin-3-yl)-5-difluoromethyl-1-(2-oxo-1,2-dihydrobenzo[cd]indol-6-yl)-1H-pyrazole-4-carboxamide] | 
15 |  | 234 | O=C(Nc1ccc(-n2cccn2)c(C(F)(F)F)c1)c1cnn(-c2cnc3c4c(cccc24)C(=O)N3)c1C(F)(F)F [Example 74, N-(4-(1H-pyrazol-1-yl)-3-(trifluoromethyl)phenyl)-1-(2-carbonyl-1,2-dihydropyrrolo[4,3,2-ij]isoquinolin-6-yl)-5-(trifluoromethyl)-1H-pyrazole-4-carboxamide] | 
16 |  | 213 | O=C(Nc1ccc(-n2nccn2)c(Cl)c1)c1cnn(-c2cnc3c4c(cccc24)C(=O)N3)c1C(F)(F)F [Example 75, N-(3-chloro-4-(2H-1,2,3-triazol-2-yl)phenyl)-1-(2-carbonyl-1,2-dihydropyrrolo[4,3,2-ij]isoquinolin-6-yl)-5-(trifluoromethyl)-1H-pyrazole-4-carboxamide] | IC50 [2]: 83 nM; AUC(0-inf) [3]: 12200 ng·h/mL; half-life [3]: 3 h; AUC(0-t) [3]: 12200 ng·h/mL; Cmax [3]: 1290 ng/mL; MRT [3]: 5.5 h; Tmax [3]: 2 h
17 | 50 |  | O=C(Nc1ccc(-n2nccn2)c(C(F)(F)F)c1)c1cnn(-c2cnc3c4c(cccc24)C(=O)N3)c1C1CC1 [Example 83, N-(4-(2H-1,2,3-triazol-2-yl)-3-(trifluoromethyl)phenyl)-5-cyclopropyl-1-(2-oxo-1,2-dihydropyrrolo[4,3,2-ij]isoquinolin-6-yl)-1H-pyrazole-4-carboxamide] | 
18 |  | 128 | N#Cc1cc(-n2ncc(C(=O)Nc3ccnc(C(F)(F)F)c3)c2C(F)(F)F)c2cccc3c2c1NC3=O [Example 92, 1-(8-cyano-2-carbonyl-1,2-dihydrobenzo[cd]indol-6-yl)-5-(trifluoromethyl)-N-(2-(trifluoromethyl)pyridin-4-yl)-1H-pyrazole-4-carboxamide] | 
